Values after ≈ are worked out from the molar mass of the structure shown.
Experiments:
[1] = test system: monoclonal antibody of the present invention (CMU-1); experiment: indirect competitive inhibition ELISA, cross reactivity test with monoclonal antibody CMU-1; assay type: binding, mouse; conditions: for percent absorption (reactivity) with monoclonal antibody CMU-1: compound final concentration 0.5 mg/mL, uracil-BSA coated plate, absorbance at 415 nm; for dose-dependent response of the antibody to the compound / ED30 (concentration when the percent absorption reached 30%) / binding ability relative to pseudouridine: monoclonal antibody CMU-1; for binding ability relative to pseudouridine: ratio of ED30 values
Method: Into a 96-well immunoplate, uracil-BSA complex (10 μg/mL as reduced to BSA) was placed at 50 μL/well, and allowed to stand overnight at 4° C. Subsequently, the immunoplate was washed 7 times with PBS containing 0.1% polyoxyethylene(20) sorbitan monolaurate (product of Wako Pure Chemical Industries, Ltd.; a product equivalent to Tween 20) (pH 7.3-7.7, product of Nissui Chemical; hereinafter referred to as PBS-T). Subsequently, 0.2% gelatin (200 μL) was added to each well, and the immunoplate was left for 2 hours at 37° C., or overnight at 4° C.
Subsequently, the immunoplate was washed five times with PBS-T, and one of the below-described samples (50 μL/well) was added to the immunoplate, which was then left for 1 hour at 37° C. • (i) a reaction mixture prepared by mixing the supernatant of the hybridoma culture obtained in Example 3 (hereinafter referred to as the hybridoma culture supernatant) (30 μL) and PBS (30 μL) for reaction at 37° C. for one hour; • a (ii) a reaction mixture obtained by mixing the hybridoma culture supernatant (30 μL) and a solution (30 μL) of uracil in PBS (uracil concentration: 1 mg/mL) for reaction at 37° C. for one hour; and • (iii) 1 μg/mL healthy mouse IgG (product of Biological). Subsequently, the wells were washed five times with PBS-T, and to each well was added alkaline-phosphatase-labeled (AP-labeled) anti-mouse-multivalent-immunoglobulin antibody (product of Sigma), which had been 1,000-fold diluted with 0.1% gelatin, (50 μL). Subsequently, the mixture was allowed to stand for one hour at 37° C. Subsequently, the wells were washed five times with PBS-T. A solution of disodium p-nitrophenylphosphate (product of Wako Chemical Industries, Ltd.) dissolved in substrate buffer (1 mg/mL) was added to each well (100 μL/well), and left for 30 minutes at 37° C. To the reaction mixtures, 2N NAOH (50 μL/well) was added and then mixed by use of a platemixer, to thereby stop the reaction. Absorbance at 415 nm was measured by use of a microplate reader.
The percent absorption was calculated by use of the following equation: [formula] wherein, • ODPBS: Absorbance measured by means of ELISA for a sample in which the hybridoma culture supernatant had been pre-treated only with PBS), • ODuracil: Absorbance measured by means of ELISA for a sample in which the hybridoma culture supernatant had been pre-treated with uracil in PBS), and • ODcontrol: Absorbance measured in ELISA of a sample treated only with heal thy mouse IgG).
By use of the hybridoma culture supernatant obtained from the above-described incubation, the reactivity of the monoclonal antibody, CMU-1, of the present invention was studied through the indirect competitive inhibition ELISA described in Example 4.
Specifically, an aliquot (50 μL) of uracil-BSA complex (10 μg/mL) was placed in each well of a 96-well immunoplate (Immunoplate I, product of Nunc), and allowed to stand overnight at 4° C. Each well was washed five times with PBS-T (200 μL) containing 0.1% Tween 20. Subsequently, to each well of the immunoplate, PBS (200 μL) containing 0.2% gelatin serving as a blocking agent was added, and the mixture was allowed to stand overnight at 4° C. Each well was again washed five times with PBS-T, to thereby prepare a plate.
Meanwhile, each of the follow samples: • (i) a mixture of the aforementioned hybridoma culture supernatant (30 μL) and PBS (30 μL); • (ii) a reaction mixture obtained by mixing the hybridoma culture supernatant (30 μL) and PBS (30 μL) containing uracil at a concentration of 0.03-1.0 mg/mL and causing reaction to proceed at 37° C. for one hour; and • (iii) […] healthy mouse IgG (product of Biologicals) was added to a 96-well plate to which the above antigen had been adsorbed (50 μL/well), and the plate was left to stand for one hour at 37° C. […]

[2] = test system: monoclonal antibody (SU-1) derived from hybridoma FERM BP-6141; experiment: indirect competitive inhibition ELISA, cross reactivity test with comparative monoclonal antibody SU-1; assay type: binding; conditions: compound final concentration 0.5 mg/mL; uracil-BSA coated plate; absorbance at 415 nm
Method: Meanwhile, each of the follow samples: • (i) a mixture of the aforementioned hybridoma culture supernatant (30 μL) and PBS (30 μL); • (ii) a reaction mixture obtained by mixing the hybridoma culture supernatant (30 μL) and PBS (30 μL) containing uracil at a concentration of 0.03-1.0 mg/mL and causing reaction to proceed at 37° C. for one hour; and • (iii) […] healthy mouse IgG (product of Biologicals) was added to a 96-well plate to which the above antigen had been adsorbed (50 μL/well), and the plate was left to stand for one hour at 37° C. Subsequently, the plate was washed five times with PBS-T, and to each well, aliquots (50 μL) of AP-labeled anti-mouse antibody (serving as the second antibody, product of Sigma), which had been 1,000-fold diluted with PBS containing 0.1% gelatin, were added, and the mixtures were allowed to stand for one hour at 37° C. Subsequently, each well was washed five times with PBS-T. An enzyme substrate buffer solution (p-nitrophenylphosphate, 1 mg/mL, pH 9.8) was added to each well (100 μl/well), and left to stand for 30 minutes at 37° C. To the reaction mixtures, 2N NaOH ([…]) was added, to thereby stop the reaction. Absorbance at 415 nm was measured by use of a microplate reader. For comparison, the same procedure was independently performed on hybridoma FERM BP-6141 described in PCT publication No. WO99/20748. The percent absorption was calculated from the above-described equation.
In a manner similar to that of Example 7, reactivity of the monoclonal antibody of the present invention with other compounds was investigated. Specifically, the procedure of step (ii) of Example 7 for investigating inhibition with uracil was repeated, except that pseudouridine, dihydrouracil, dihydrothymine, thymine, cytosine, or N-carbamyl-β-alanine (1 mg/mL) was used instead of uracil (1 mg/mL), to thereby investigate reactivity of the monoclonal antibody of the present invention with uracil compounds. As a comparative antibody, a monoclonal antibody (SU-1) derived from hybridoma “FERM BP-6141” described in WO 99/20748 was used.

[3] = test system: monoclonal antibody for psuedouridine; conditions: prior art antibody used for diagnosing a progressive cancer; cited from earlier work

| binding ability relative to pseudouridine [1] [times] | SMILES | percent absorption (reactivity) with monoclonal antibody CMU-1 [1] | dose-dependent response of the antibody to the compound [1] | percent absorption (reactivity) with comparative monoclonal antibody SU-1 [2] [%] | ED30 (concentration when the percent absorption reached 30%) [1] [µg/mL] | reactivity with the monoclonal antibody for pseudouridine [3] | concentration range in which the compound is detected ([1]; monoclonal antibody CMU-1, FIG. 1) [mg/mL] |
| --- | --- | --- | --- | --- | --- | --- | --- |
| – | Nc1cc[nH]c(=O)n1 [Cytosine] | 15% | no dose-dependent response | 15 | – | – | – |
| – | CC1CNC(=O)NC1=O (stereo not shown) [Dihydrothymine] | 22% | no dose-dependent response | – | – | – | – |
| – | O=C1CCNC(=O)N1 [Dihydrouracil] | 8% | no dose-dependent response | 2 | – | – | – |
| – | NC(=O)NCCC(=O)O [N-Carbamyl-β-alanine] | 8% | no dose-dependent response | 91 | – | – | – |
| – | O=c1[nH]cc([C@@H]2O[C@H](CO)[C@@H](O)[C@H]2O)c(=O)[nH]1 [Pseudouridine] | 32% | did exhibit dose-dependent response | 26 | 390 (≈ 1600 µM) | 95-99% | – |
| 26 | Cc1c[nH]c(=O)[nH]c1=O [Thymine] | 91-97% | exhibited dose-dependent response | 5 | 15 (≈ 119 µM) | – | – |
| 13 | O=c1cc[nH]c(=O)[nH]1 [Uracil] | 95-96% | exhibited dose-dependent response | 41 | 30 (≈ 268 µM) | 30-40% | 0.005 to 0.5 |

Source: US6927035B1, “Antiuracil monoclonal antibody” (Taiho Pharmaceutical Co., LTD, priority 1999, dated 2005)
